Experimental findings from patent publication US9598420B2, “Benzodiazepine bromodomain inhibitor” (GlaxoSmithKline LLC, priority 2009, dated 2017) are described below.

For orientation: melting point means the temperature, or range, at which the solid turns liquid.

Structures can show the parent of a compound that is named as a salt.

Test system in the first data set: not given
Assay: not given
Details: not given
Take `Cc1nnc2n1-c1ccc(O)cc1C(c1ccc(Cl)cc1)=N[C@H]2CC(=O)Nc1ccc(F)cc1`: the melting point was 222 °C (dec.).

`COc1ccc2c(c1)C(c1ccc(Cl)cc1)=N[C@@H](CC(=O)NC1CCCCC1)c1nnc(C)n1-2` (stereo in doubt): the melting point is > 260 °C. Still for that read-out and setting: to `COc1ccc2c(c1)C(c1ccc(Cl)cc1)=N[C@@H](CC(=O)Nc1ccccc1F)c1nnc(C)n1-2` [Example 9, 2-[(4S)-6-(4-chlorophenyl)-1-methyl-8-(methyloxy)-4H-[1,2,4]triazolo[4,3-a][1,4]benzodiazepin-4-yl]-N-(2-fluorophenyl)acetamide] belongs 264 °C; to `COc1ccc2c(c1)C(c1ccc(Cl)cc1)=N[C@@H](CC(=O)Nc1cccc(F)c1)c1nnc(C)n1-2` [Example 10, 2-[(4S)-6-(4-chlorophenyl)-1-methyl-8-(methyloxy)-4H-[1,2,4]triazolo[4,3-a][1,4]benzodiazepin-4-yl]-N-(3-fluorophenyl)acetamide], 248 °C; to `COc1ccc2c(c1)C(c1ccc(Cl)cc1)=N[C@@H](CC(=O)Nc1ccncc1)c1nnc(C)n1-2` [Example 14, 2-[(4S)-6-(4-chlorophenyl)-1-methyl-8-(methyloxy)-4H-[1,2,4]triazolo[4,3-a][1,4]benzodiazepin-4-yl]-N-4-pyridinylacetamide], 223 °C. On to `COc1ccc2c(c1)C(c1ccc(Cl)cc1)=N[C@@H](CC(=O)Nc1nccs1)c1nnc(C)n1-2` [Example 15, 2-[(4S)-6-(4-chlorophenyl)-1-methyl-8-(methyloxy)-4H-[1,2,4]triazolo[4,3-a][1,4]benzodiazepin-4-yl]-N-1,3-thiazol-2-ylacetamide], for which the melting point stood at 249 °C.

The next data set relates to LPS induced IL-6 secretion from whole blood. As to the kind of experiment: Measurement of LPS Induced IL-6 Secretion from Whole Blood. Conditions: LPS 200 ng/ml, 24 hours, immunoassay, read-out: pIC50 (IL-6 levels) (converted). The data set is classed as cell-based. The protocol: Activation of monocytic cells by agonists of toll-like receptors such as bacterial lipopolysaccharide (LPS) results in production of key inflammatory mediators including IL-6. Such pathways are widely considered to be central to the pathophysiology of a range of auto-immune and inflammatory disorders.
After further incubation for 24 hours at 37 degrees, 140 ul of PBS are added to each well. The plates are sealed, shaken for 10 minutes and then centrifuged (2500 rpm×10 min). 100 ul of the supernatant are removed and IL-6 levels assayed by immunoassay (typically by MesoScale Discovery technology) either immediately or following storage at −20 degrees.
As to `COc1ccc2c(c1)C(c1ccc(Cl)cc1)=N[C@@H](CC(=O)Nc1ccccc1F)c1nnc(C)n1-2` [Example 9, 2-[(4S)-6-(4-chlorophenyl)-1-methyl-8-(methyloxy)-4H-[1,2,4]triazolo[4,3-a][1,4]benzodiazepin-4-yl]-N-(2-fluorophenyl)acetamide], the IC50 is ≤ 10 µM. Turning to `COc1ccc2c(c1)C(c1ccc(Cl)cc1)=N[C@@H](CC(=O)Nc1cccc(F)c1)c1nnc(C)n1-2` [Example 10, 2-[(4S)-6-(4-chlorophenyl)-1-methyl-8-(methyloxy)-4H-[1,2,4]triazolo[4,3-a][1,4]benzodiazepin-4-yl]-N-(3-fluorophenyl)acetamide], the IC50 was ≤ 10 µM. The same measure, in the same setting: to `COc1ccc2c(c1)C(c1ccc(Cl)cc1)=N[C@@H](CC(=O)Nc1nccs1)c1nnc(C)n1-2` [Example 15, 2-[(4S)-6-(4-chlorophenyl)-1-methyl-8-(methyloxy)-4H-[1,2,4]triazolo[4,3-a][1,4]benzodiazepin-4-yl]-N-1,3-thiazol-2-ylacetamide] belongs ≤ 10 µM. As to `CNC1CCN(C(=O)C[C@@H]2N=C(c3ccc(Cl)cc3)c3cc(OC)ccc3-n3c(C)nnc32)CC1` [Example 40, 1-{[(4S)-6-(4-chlorophenyl)-1-methyl-8-(methyloxy)-4H-[1,2,4]triazolo[4,3-a][1,4]benzodiazepin-4-yl]acetyl}-N-methyl-4-piperidinamine formic acid salt], the IC50 was ≤ 10 µM.

With `COc1ccc2c(c1)C(c1ccc(Cl)cc1)=N[C@@H](CC(=O)N1CCC(N)CC1)c1nnc(C)n1-2` [Example 41, (S)-1-(4-aminopiperidin-1-yl)-2-(6-(4-chlorophenyl)-8-methoxy-1-methyl-4H-benzo[f][1,2,4]triazolo[4,3-a][1,4]diazepin-4-yl)ethanone], the IC50 is ≤ 10 µM. As to `COc1ccc2c(c1)C(c1ccc(Cl)cc1)=N[C@@H](CC(=O)NC1CNC1)c1nnc(C)n1-2` [Example 42, (S)-N-(azetidin-3-yl)-2-(6-(4-chlorophenyl)-8-methoxy-1-methyl-4H-benzo[f][1,2,4]triazolo[4,3-a][1,4]diazepin-4-yl)acetamide], the IC50 was ≤ 10 µM. For the compound `COc1ccc2c(c1)C(c1ccc(Cl)cc1)=N[C@@H](CC(=O)N1CC(N)C1)c1nnc(C)n1-2` [Example 43, (S)-1-(3-aminoazetidin-1-yl)-2-(6-(4-chlorophenyl)-8-methoxy-1-methyl-4H-benzo[f][1,2,4]triazolo[4,3-a][1,4]diazepin-4-yl)ethanone], the IC50 is ≤ 10 µM. On the same count and under the same terms, under `COc1ccc2c(c1)C(c1ccc(Cl)cc1)=N[C@@H](CC(=O)N1CCC(O)CC1)c1nnc(C)n1-2` [Example 44, (S)-2-(6-(4-chlorophenyl)-8-methoxy-1-methyl-4H-benzo[f][1,2,4]triazolo[4,3-a][1,4]diazepin-4-yl)-1-(4-hydroxypiperidin-1-yl)ethanone] stands ≤ 10 µM; under `COc1ccc2c(c1)C(c1ccc(Cl)cc1)=N[C@@H](CC(=O)NCCN1CCOCC1)c1nnc(C)n1-2` [Example 45, 2-[(4S)-6-(4-chlorophenyl)-1-methyl-8-(methyloxy)-4H-[1,2,4]triazolo[4,3-a][1,4]benzodiazepin-4-yl]-N-[2-(4-morpholinyl)ethyl]acetamide], ≤ 10 µM; under `COc1ccc2c(c1)C(c1ccc(Cl)cc1)=N[C@@H](CC(=O)NCCc1c[nH]cn1)c1nnc(C)n1-2` [Example 46, 2-[(4S)-6-(4-chlorophenyl)-1-methyl-8-(methyloxy)-4H-[1,2,4]triazolo[4,3-a][1,4]benzodiazepin-4-yl]-N-[2-(1H-imidazol-4-yl)ethyl]acetamide], ≤ 10 µM. Regarding `COc1ccc2c(c1)C(c1ccc(Cl)cc1)=N[C@@H](CC(=O)OC(C)(C)C)c1nnc(C)n1-2` [Example 47, (S)-tert-butyl-2-(6-(4-chlorophenyl)-8-methoxy-1-methyl-4H-benzo[f][1,2,4]triazolo[4,3-a][1,4]diazepin-4-yl)acetate], the IC50 is ≤ 10 µM. Still for that read-out and setting: under `COc1ccc2c(c1)C(c1ccc(Cl)cc1)=N[C@@H](CC(=O)OC1CCNCC1)c1nnc(C)n1-2` [Example 48, (S)-piperidin-4-yl-2-(6-(4-chlorophenyl)-8-methoxy-1-methyl-4H-benzo[f][1,2,4]triazolo[4,3-a][1,4]diazepin-4-yl)acetate] stands ≤ 10 µM; under `COc1ccc2c(c1)C(c1ccc(Cl)cc1)=N[C@@H](CC(=O)NCCN(C)C)c1nnc(C)n1-2` [Example 50, 2-[(4S)-6-(4-chlorophenyl)-1-methyl-8-(methyloxy)-4H-[1,2,4]triazolo[4,3-a][1,4]benzodiazepin-4-yl]-N-[2-(dimethylamino)ethyl]acetamide formic acid salt], ≤ 10 µM. For the compound `COc1ccc2c(c1)C(c1ccc(Cl)cc1)=N[C@@H](CC(=O)NCCCN(C)C)c1nnc(C)n1-2` [Example 51, 2-[(4S)-6-(4-chlorophenyl)-1-methyl-8-(methyloxy)-4H-[1,2,4]triazolo[4,3-a][1,4]benzodiazepin-4-yl]-N-[3-(dimethylamino)propyl]acetamide formic acid salt], the IC50 is ≤ 10 µM. For `COc1ccc2c(c1)C(c1ccc(Cl)cc1)=N[C@@H](CC(=O)Nc1ccncn1)c1nnc(C)n1-2` [Example 54, 2-[(4S)-6-(4-chlorophenyl)-1-methyl-8-(methyloxy)-4H-[1,2,4]triazolo[4,3-a][1,4]benzodiazepin-4-yl]-N-4-pyrimidinylacetamide], the IC50 is ≤ 10 µM.

On to `COc1ccc2c(c1)C(c1ccc(Cl)cc1)=N[C@@H](CC(=O)Nc1cc(C)on1)c1nnc(C)n1-2` [Example 55, 2-[(4S)-6-(4-chlorophenyl)-1-methyl-8-(methyloxy)-4H-[1,2,4]triazolo[4,3-a][1,4]benzodiazepin-4-yl]-N-(5-methyl-3-isoxazolyl)acetamide], for which the IC50 was ≤ 10 µM.

Consider `COc1ccc2c(c1)C(c1ccc(Cl)cc1)=N[C@@H](CC(=O)NC1CCOCC1)c1nnc(C)n1-2` [Example 56, 2-[(4S)-6-(4-chlorophenyl)-1-methyl-8-(methyloxy)-4H-[1,2,4]triazolo[4,3-a][1,4]benzodiazepin-4-yl]-N-(tetrahydro-2H-pyran-4-yl)acetamide], for which the IC50 was ≤ 10 µM. Consider `COc1ccc(COC(=O)C[C@@H]2N=C(c3ccc(Cl)cc3)c3cc(OC)ccc3-n3c(C)nnc32)cc1` [Example 58], for which the IC50 is ≤ 10 µM. Same read-out and setting: to `COc1ccc2c(c1)C(c1ccc(Cl)cc1)=N[C@@H](CC(=O)OCC(C)C)c1nnc(C)n1-2` [Example 59] belongs ≤ 10 µM; to `COc1ccc2c(c1)C(c1ccc(Cl)cc1)=N[C@@H](CC(=O)OC1CCOCC1)c1nnc(C)n1-2` [Example 60], ≤ 10 µM.

In the case of `COc1ccc2c(c1)C(c1ccc(Cl)cc1)=NC(CC(=O)Nc1ccncc1)c1nnc(C)n1-2` (centres unmarked) [Example 61], the IC50 was ≤ 10 µM. Consider `COc1ccc2c(c1)C(c1ccc(Cl)cc1)=NC(CC(=O)NCC1CC1)c1nnc(C)n1-2` (centres unmarked) [Example 62], for which the IC50 is ≤ 10 µM. The same measure, in the same setting: to `Cc1nnc2n1-c1ccccc1C(c1ccc(Cl)cc1)=NC2CC(=O)Nc1ccncc1` (centres unmarked) [Example 63] belongs ≤ 10 µM; to `COc1ccc2c(c1)C(c1ccc(Cl)cc1)=NC(CC(=O)Nc1nccs1)c1nnc(C)n1-2` (centres unmarked) [Example 64], ≤ 10 µM.

`COc1ccc2c(c1)C(c1ccc(Cl)cc1)=NC(CC(=O)Nc1ccc(F)cc1)c1nnc(C)n1-2` (centres unmarked) [Example 67]: the IC50 is ≤ 10 µM.

With `CCNC(=O)C[C@@H]1N=C(c2ccc(Cl)cc2)c2ccc(OC)cc2-n2c(C)nnc21` [Example 69], the IC50 is ≤ 10 µM.
